Test results taken from US8329741B2, “Substituted pyrrolidine compounds with central nervous system activity” (The Research Foundation of State University of New York, priority 2007, dated 2012).
Entries after “also recorded” stand apart in the source; their conditions may differ. Structures can show the parent of a compound that is named as a salt.

Assays:
chakragati (ckr) mice = test: Screening of candidate compounds based on motor activity in ckr mice; format: in vivo, mouse; settings: for overall biological activity: based on receptor binding data and ckr mouse screening data (FIGS. 1 and 2, ANOVA)
Method: To test the effect of compounds, including compounds of the present invention, on CNS function, chakragati (ckr) mice were used as a model. The DC series compounds were tested on motor activity and PPI in ckr mice.
(§1) Stock solutions of the drugs (DC1 to DC20) were dissolved in DMSO, and then diluted to 10 mg/10 mL with distilled water such that the final concentration of DMSO was 0.5%. Each animal received 10 mg/kg of the test drug in a volume of 0.1 mL per 10 g. […] These compounds were sonicated for 30 minutes in DMSO, acidified to pH 4 to 5 by drop-wise addition of 1M HCl, and then suspended in 20% cyclodextrin solution.
Twenty ckr mice (male and female, 3 months old) were randomly assigned to receive test drugs or 0.5% DMSO vehicle. Each drug was tested in 5 mice. Each mouse received up to 5 randomly assigned drugs in random order. Each treatment was separated by a minimum washout period of 3 days. On the day of testing, mice were brought into the behavioral test room and allowed to acclimatize for at least 1 hour. They then received intraperitoneal injections of the 0.1 mL/10 g (10 mg/kg) of the test drug solutions or vehicle.
They were returned to their cage and 20 minutes later they were placed in a 190 mm diameter, 300 mm deep circular recording chamber. Four mice were tested simultaneous in 4 separate chambers. Between each testing session the chambers were wiped down with 70% ethanol and allowed to dry for at least 10 minutes The mice were monitored with an overhead video camera for 15 min. Their behavior was videotaped and simultaneously digitized and tracked (Ethovision Version 2, Noldus). The total distance moved, the velocity of movement, and the time spent moving were calculated.
The data for each parameter were separately analyzed by one-way ANOVA (Analysis of Variance) and post hoc Dunnett's comparisons with the vehicle-treated control group. Tukey's HSD test was applied for post hoc comparisons between groups. p<0.05 was considered statistically significant.

[1] = Preparation of drug solutions (dissolution in DMSO); format: physicochemical; settings: stock solution preparation
Method: as §1

5-HT transport sites = biological target: T1, 5-HT transport sites (Rattus norvegicus, UniProt P31652); test: Displacement of [3H]paroxetine binding in membranes from rat frontal cortex
T1 construct: striatum and frontal cortex dissected from frozen Sprague-Dawley rat brains (Pel-Freez, Rogers, Ark.); tissue Pel-Freez, Rogers, Ark; host or cells: rat frontal cortex membranes (Sprague-Dawley rat brain)
Method: Binding of substituted pyrrolidine compounds at biogenic amine transporters was determined using striatum and frontal cortex dissected from frozen Sprague-Dawley rat brains (Pel-Freez, Rogers, Ark.). Affinities of the compounds at dopamine (DA) transport sites were determined by displacement of [^125I] 3 beta-(4-iodophenyl)tropan-2 beta-carboxylic acid methyl ester (RTI-55) binding in membranes from rat striatum, using 0.5 mg (original wet weight) of membranes and 10 pM [^125I]RTI-55. Non-specific binding was determined in the presence of 1 μM 2β-propanoyl-3β-(2-naphthyl) tropane (WF-23). Affinities of the compounds at 5-HT transport sites were determined by displacement of [^3H]paroxetine binding in membranes from rat frontal cortex, using 50 mg (original wet weight) of membranes and 0.4 nM [^3H]paroxetine. Non-specific binding was determined in the presence of 10 μM fluoxetine. Binding of the compounds at norepinephrine (NE) transport sites was determined by displacement of [^3H]nisoxetine binding in membranes from rat forebrain, using 0.7 nM [^3H]nisoxetine. Non-specific binding was determined in the presence of 1 μM desipramine.
Potencies in FIGS. 3 and 4 were calculated from displacement curves using 7-10 concentrations of unlabeled compounds, as analyzed by non-linear curve fitting. […]

ckr mouse = test: Validation of ckr mouse model with antipsychotics (hyperactivity and circling); format: in vivo; settings: concentrations relevant to human clinical use
From the text: The ckr mouse was serendipitously created as a result of a transgenic insertional mutation. […] The ckr mouse also appears to show reduced social interactions resembling the social withdrawal that is part of the constellation of negative symptoms of schizophrenia. The mouse also presents lateral ventricular enlargement, which may mirror neuropathological observations in schizophrenia.
The model has been further validated by testing risperidone, haloperidol and pimozide in the ckr mouse. The behavioral output was assayed by measuring the rate of hyperactivity and circling after administration. […] Based on the foregoing, the ckr mouse model is considered to be valid for evaluation of compounds for use in reducing the symptoms of neuropsychiatric disorders in mammals, including humans.

T1 sequence (P31652 whole entry): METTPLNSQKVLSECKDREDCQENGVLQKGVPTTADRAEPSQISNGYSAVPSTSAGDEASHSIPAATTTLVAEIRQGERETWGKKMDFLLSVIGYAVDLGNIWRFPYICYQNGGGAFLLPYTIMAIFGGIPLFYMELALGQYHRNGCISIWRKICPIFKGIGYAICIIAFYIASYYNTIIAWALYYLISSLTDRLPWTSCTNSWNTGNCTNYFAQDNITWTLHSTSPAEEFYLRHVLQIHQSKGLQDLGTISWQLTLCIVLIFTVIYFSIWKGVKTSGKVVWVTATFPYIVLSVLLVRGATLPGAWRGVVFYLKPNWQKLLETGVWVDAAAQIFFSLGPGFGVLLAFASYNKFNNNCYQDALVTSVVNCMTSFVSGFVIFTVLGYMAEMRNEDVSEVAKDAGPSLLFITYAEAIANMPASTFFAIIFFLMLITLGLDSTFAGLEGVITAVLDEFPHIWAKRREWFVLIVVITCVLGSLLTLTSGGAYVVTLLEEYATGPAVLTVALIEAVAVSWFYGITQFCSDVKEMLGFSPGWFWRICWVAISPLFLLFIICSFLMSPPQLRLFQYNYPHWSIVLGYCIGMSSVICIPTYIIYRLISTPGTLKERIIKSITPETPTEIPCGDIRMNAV

With COC(=O)[C@H](c1ccc2ccccc2c1)[C@@H]1C[C@@H](OC)CN1 [DC16, (R)-methyl 2-((2S,4R)-4-methoxypyrrolidin-2-yl)-2-(naphthalen-2-yl)acetate hydrochloride] the overall biological activity (chakragati (ckr) mice; hydrochloride) was “has biological activity; also recorded: favorable biological activity”, the total distance moved (chakragati (ckr) mice; ckr mice, 10 mg/kg intraperitoneal, 20 minutes after injection, monitored 15 min, vs vehicle (FIG. 1a)) was “trend towards decreased” and the velocity of movement (chakragati (ckr) mice; ckr mice, 10 mg/kg intraperitoneal, 20 minutes after injection, monitored 15 min, vs vehicle (FIG. 1b)) was “trend towards decreased”. For the same compound, the time spent moving (chakragati (ckr) mice; ckr mice, 10 mg/kg intraperitoneal, 20 minutes after injection, monitored 15 min, vs vehicle (FIG. 1c)) was “trend towards a decrease” and the “solubility in DMSO alone” value [1] was “difficult to dissolve in DMSO alone”.
With COC(=O)[C@H](c1ccc(Cl)c(Cl)c1)[C@@H]1C[C@@H](O)CN1 [DC-17, (R)-methyl 2-(3,4-dichlorophenyl)-2-((2S,4R)-4-hydroxypyrrolidin-2-yl)acetate hydrochloride] the overall biological activity (chakragati (ckr) mice) was “favorable biological activity”.
In the case of COC(=O)[C@H](c1ccc2ccccc2c1)[C@@H]1C[C@@H](O)CN1.Cl [HDMP-80, (R)-methyl 2-((2S,4R)-4-hydroxypyrrolidin-2-yl)-2-(naphthalen-2-yl)acetate hydrochloride], the “binding affinity for the serotonin transporter” value (5-HT transport sites) is reported as “high binding affinity”.
With O=C(CCCN1CCC(O)(c2ccc(Cl)cc2)CC1)c1ccc(F)cc1 [haloperidol] the “hyperactivity in ckr mice” value (ckr mouse) was “dose-dependent attenuation”.
With Cc1nc2n(c(=O)c1CCN1CCC(c3noc4cc(F)ccc34)CC1)CCCC2 [risperidone] the “hyperactivity in ckr mice” value (ckr mouse) was “dose-dependent attenuation”.
